Measured values taken from patent US10265310B2, “6-membered cyclic amines or lactames substituted with urea and phenyl” (GRÜNENTHAL GMBH, priority 2016, dated 2019).

Tests used:
[1] = target: FPR2 (Homo sapiens (Human), UniProt P25090); experiment: Agonistic activity (calcium FLIPR) in hFPR2-Aq-CHO cells; assay type: cell-based; settings: FLIPR Calcium 5 dye fluorescence, agonistic response
Method: (§1) Cells (hFPR1-Gα15-CHO or hFPR2-Aq-CHO) are suspended in 10 mL of respective complete medium (F12(1×) HAM media; 10% HI-FBS; 0.1 mg/ml Hygromycin B and 0.2 mg/ml Zeocin [for hFPR1 only]; 0.4 mg/mL Geneticin and 0.25 mg/ml Zeocin [for hFPR2-Aq only]) and viability is checked using Trypan Blue exclusion. After washing, the cells are plated at 10,000 cells per well in 40 μL complete medium in a 384-well sterile clear bottom black plate and incubated in a 5% CO2 incubator at 37° C. for 18 hours. Plating media is removed from each well by decanting and gentle tapping before 30 μL of 0.5× Calcium 5 dye solution (0.5×FLIPR Calcium 5 dye (Molecular devices, R8186)); HBSS; 20 mM HEPES; 2.5 mM Probenecid; 0.025% Pluronic F-127; pH adjusted to 7.4) is added to each well and the plate is then incubated at 37° C. for 30 minutes. For the assay the plate is equilibrated at room temperature for 10 minutes before placing it in the FLIPR. Compounds are dissolved in DMSO and serially diluted over an 11 point half log (3.16 fold) dilution (2 mM to 20 nM). Compounds are then diluted 1:50 in assay buffer (HBSS; 20 mM HEPES; 2.5 mM Probenecid; 0.05% gelatin; 0.1% BSA; pH adjusted to 7.4) just before performing the assay. Compounds are finally added to the respective wells of the cell plate (final assay concentration 10 μM to 100 pM) using the FLIPR (e.g. FLIPR-Tetra, Molecular Devices) and fluorescence readings are captured for 5 minutes. The increase in fluorescence from the basal reading in the presence of the compounds is compared with that of the control wells (wells having no compound) to calculate the activity of the compounds. The EC50 values of the compounds can be determined using e.g. Graph pad Prism software.
(§2) Assay Method for Measuring Agonistic Activity of Compounds in hFPR1-Gα15-CHO and hFPR2-Aq-CHO Cell
(§3) Cryo-vial containing 6×10^6 cells (hFPR1-Gα15-CHO or hFPR2-Aq-CHO) was thawed in a 37° C. water bath. Cells were suspended in 10 ml of respective complete growth media (F12(1×) HAM media (Gibco; Cat#11765); 10% HI-FBS (Gibco; Cat#10082); 0.1 mg/ml Hygromycin B (Invitrogen; Cat#10687-010) [for hFPR1 only]; 0.2 mg/ml Zeocin (Invitrogen; Cat#R25001) [for hFPR1 only]; 0.4 mg/ml Geneticin (Gibco; Cat#10131) [for hFPR2-Aq only]; 0.25 mg/ml Zeocin (Invitrogen; Cat#R25001) [for hFPR2-Aq only]) in a 15 ml centrifuge tube. The cell viability was checked with the help of Trypan Blue dye. Upon washing the cells, those were plated in a 384-well sterile clear bottom black plate (Greiner Bioone Cat#781091) so that, each well contained 10,000 cells in 40 μl complete growth media. The plate was incubated in a 5% CO2 incubator at 37° C. for 18 hours.
(§4) Before assay on the next day, the cell plating media was removed from each well of the plate by decanting and gentle tapping. 30 μl, 0.11 of 0.5× Calcium 5 dye solution (0.5×FLIPR Calcium 5 dye (Molecular devices Cat# R8186); HBSS (Invitrogen; Cat#14025); 20 mM HEPES (Sigma; Cat#H0887); 2.5 mM Probenecid (Sigma; Cat#P8761); 0.025% Pluronic F-127 (Sigma; Cat#P2443); pH adjusted to 7.4) was added to each well. The plate was then incubated at 37° C. for 30 minutes. Following which the plate was equilibrated at room temperature for 10 minutes before placing it in a 384 well FLIPR for assay. Compounds were dissolved in DMSO and serially diluted following 11 point half log (3.16 fold) dilution with a starting concentration of 2 mM (Final assay concentration 10 μM). Aliquots of above mentioned each dilution was mixed with assay buffer (HBSS (Invitrogen; Cat#14025); 20 mM HEPES (Sigma; Cat#H0887); 2.5 mM Probenecid (Sigma; Cat#P8761); 0.05% gelatin (Sigma; Cat#G1890); 0.1% BSA (Sigma; Cat#A3059); pH adjusted to 7.4) just before performing the assay. Compounds were added to the respective wells of the assay ready cell plate with the help of the FLIPR (FLIPR Tetra) and fluorescence readings were captured for 5 minutes to measure any agonistic response of the compounds. […]

[2] = target: FPR1 (Homo sapiens (Human), UniProt P21462); experiment: Agonistic activity (calcium FLIPR) in hFPR1-Gα15-CHO cells; assay type: cell-based; settings: FLIPR Calcium 5 dye fluorescence, agonistic response
FPR1, sequence (P21462 whole entry): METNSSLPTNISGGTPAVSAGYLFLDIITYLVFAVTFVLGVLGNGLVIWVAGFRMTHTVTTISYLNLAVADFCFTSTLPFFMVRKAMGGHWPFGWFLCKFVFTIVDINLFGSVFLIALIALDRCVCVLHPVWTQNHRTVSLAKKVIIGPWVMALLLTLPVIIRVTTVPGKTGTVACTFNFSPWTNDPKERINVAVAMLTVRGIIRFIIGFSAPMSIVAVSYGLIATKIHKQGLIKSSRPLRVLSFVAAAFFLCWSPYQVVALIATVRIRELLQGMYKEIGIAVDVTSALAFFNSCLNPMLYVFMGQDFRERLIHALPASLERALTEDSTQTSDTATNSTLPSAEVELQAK
Method: as §1, §2, §3, §4

FPR2, sequence (P25090 whole entry): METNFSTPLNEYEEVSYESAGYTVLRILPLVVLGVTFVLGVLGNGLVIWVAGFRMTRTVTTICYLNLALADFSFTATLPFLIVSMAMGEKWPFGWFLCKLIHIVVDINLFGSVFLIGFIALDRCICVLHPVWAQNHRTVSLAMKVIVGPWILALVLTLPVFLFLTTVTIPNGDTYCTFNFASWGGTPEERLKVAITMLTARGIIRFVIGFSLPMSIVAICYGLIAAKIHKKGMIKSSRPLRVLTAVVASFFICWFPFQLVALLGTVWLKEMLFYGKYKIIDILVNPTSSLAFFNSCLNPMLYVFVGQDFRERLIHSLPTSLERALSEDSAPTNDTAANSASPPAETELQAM

Compound: COc1ccc([C@@H]2CCN(C(C)=O)C[C@H]2NC(=O)Nc2ccc(C(F)(F)F)nc2)cc1 (racemic) [Example 27, rac-trans-1-(1-acetyl-4-(4-methoxyphenyl)piperidin-3-yl)-3-(6-(trifluoromethyl)pyridin-3-yl)urea]
- EC50 [1]: 1 to 1000 nM
- EC50 [2]: 1 to 1000 nM

Compound: COc1ccc(C2CCN(C(C)=O)C[C@H]2NC(=O)Nc2ccc(C)nc2)cc1 (mixture of isomers) [Example 28, rac-trans-1-(1-acetyl-4-(4-methoxyphenyl)piperidin-3-yl)-3-(6-methylpyridin-3-yl)urea]
- EC50 [1]: 1 to 1000 nM
- EC50 [2]: 1 to 1000 nM

Compound: COc1cc(F)c([C@@H]2CC(=O)N(CC3CC3)C[C@H]2NC(=O)Nc2ccc(Cl)cc2)c(F)c1 (racemic) [Example 29, rac-trans-1-(4-chlorophenyl)-3-(1-(cyclopropylmethyl)-4-(2,6-difluoro-4-methoxyphenyl)-6-oxopiperidin-3-yl)urea]
- EC50 [1]: < 1 nM
- EC50 [2]: 1 to 1000 nM

Compound: COc1ccc([C@@H]2CCN(C(=O)CCO)C[C@H]2NC(=O)Nc2ccc(Cl)cc2)cc1 (racemic) [Example 30, rac-trans-1-(4-chlorophenyl)-3-(1-(3-hydroxypropanoyl)-4-(4-methoxyphenyl)piperidin-3-yl)urea]
- EC50 [1]: < 1 nM
- EC50 [2]: < 1 nM

Compound: COc1cc(F)c([C@@H]2CC(=O)N(CCO)C[C@H]2NC(=O)Nc2ccc(Cl)cc2)c(F)c1 (racemic) [Example 31, rac-trans-1-(4-chlorophenyl)-3-(4-(2,6-difluoro-4-methoxyphenyl)-1-(2-hydroxyethyl)-6-oxopiperidin-3-yl)urea]
- EC50 [1]: < 1 nM
- EC50 [2]: 1 to 1000 nM

Compound: COc1ccc([C@@H]2CC(=O)N(CCO)C[C@H]2NC(=O)Nc2ccc(Cl)cc2)cc1 (racemic) [Example 32, rac-trans-1-(4-chlorophenyl)-3-(1-(2-hydroxyethyl)-4-(4-methoxyphenyl)-6-oxopiperidin-3-yl)urea]
- EC50 [1]: < 1 nM
- EC50 [2]: 1 to 1000 nM

Compound: COc1cc(F)c([C@@H]2CC(=O)NC[C@H]2NC(=O)Nc2ccc(Cl)s2)c(F)c1 (racemic) [Example 51, rac-trans-1-(5-chlorothiophen-2-yl)-3-(4-(2,6-difluoro-4-methoxyphenyl)-6-oxopiperidin-3-yl)urea]
- EC50 [1]: 1 to 1000 nM
- EC50 [2]: 1 to 1000 nM

Compound: COc1cc(F)c([C@@H]2CC(=O)NC[C@H]2NC(=O)Nc2csc(Cl)c2)c(F)c1 (racemic) [Example 52, rac-trans-1-(5-Chloro-thiophen-3-yl)-3-[4-(2,6-difluoro-4-methoxy-phenyl)-6-oxo-piperidin-3-yl]-urea]
- EC50 [1]: < 1 nM
- EC50 [2]: 1 to 1000 nM

Compound: COc1cc(F)c([C@@H]2CC(=O)NC[C@H]2NC(=O)Nc2cc3ccccc3s2)c(F)c1 (racemic) [Example 53, rac-trans-1-(Benzo[b]thiophen-2-yl)-3-[4-(2,6-difluoro-4-methoxy-phenyl)-6-oxo-piperidin-3-yl]-urea]
- EC50 [1]: 1 to 1000 nM
- EC50 [2]: 1 to 1000 nM

Compound: COc1cc(F)c([C@@H]2CC(=O)NC[C@H]2NC(=O)Nc2ccc(Oc3ccccc3)cc2)c(F)c1 (racemic) [Example 54, rac-trans-1-[4-(2,6-Difluoro-4-methoxy-phenyl)-6-oxo-piperidin-3-yl]-3-(4-phenoxy-phenyl)-urea]
- EC50 [1]: < 1 nM
- EC50 [2]: 1 to 1000 nM

Compound: COc1cc(F)c([C@@H]2CC(=O)NC[C@H]2NC(=O)Nc2cc(C)ns2)c(F)c1 (racemic) [Example 55, rac-trans-1-[4-(2,6-Difluoro-4-methoxy-phenyl)-6-oxo-piperidin-3-yl]-3-(3-methyl-isothiazol-5-yl)-urea]
- EC50 [1]: 1 to 1000 nM
- EC50 [2]: 1 to 1000 nM

Compound: COc1cc(F)c([C@@H]2CC(=O)NC[C@H]2NC(=O)Nc2ncc(Cl)s2)c(F)c1 (racemic) [Example 56, rac-trans-1-(5-Chloro-thiazol-2-yl)-3-[4-(2,6-difluoro-4-methoxy-phenyl)-6-oxo-piperidin-3-yl]-urea]
- EC50 [1]: 1 to 1000 nM
- EC50 [2]: 1 to 1000 nM

Compound: COc1cc(F)c([C@@H]2CC(=O)NC[C@H]2NC(=O)Nc2ccc(Cl)c(O)c2)c(F)c1 (racemic) [Example 57, rac-trans-1-(4-Chloro-3-hydroxy-phenyl)-3-[4-(2,6-difluoro-4-methoxy-phenyl)-6-oxo-piperidin-3-yl]-urea]
- EC50 [1]: < 1 nM
- EC50 [2]: 1 to 1000 nM

Compound: COc1cc(F)c([C@@H]2CC(=O)NC[C@H]2NC(=O)Nc2ccc(Cl)c(F)c2)c(F)c1 (racemic) [Example 58, rac-trans-1-(4-Chloro-3-fluoro-phenyl)-3-[4-(2,6-difluoro-4-methoxy-phenyl)-6-oxo-piperidin-3-yl]-urea]
- EC50 [1]: 1 to 1000 nM
- EC50 [2]: 1 to 1000 nM

Compound: CCc1cc(F)c([C@@H]2CC(=O)NC[C@H]2NC(=O)Nc2ccc(Cl)cc2)c(F)c1 (racemic) [Example 69, rac-trans-1-(4-chlorophenyl)-3-(4-(4-ethyl-2,6-difluorophenyl)-6-oxopiperidin-3-yl)urea]
- EC50 [1]: 1 to 1000 nM
- EC50 [2]: 1 to 1000 nM

Compound: O=C1C[C@@H](c2c(F)cc(OC(F)F)cc2F)[C@H](NC(=O)Nc2ccc(Cl)cc2)CN1 (racemic) [Example 70, rac-trans-1-(4-chlorophenyl)-3-(4-(4-(difluoromethoxy)-2,6-difluorophenyl)-6-oxopiperidin-3-yl)urea]
- EC50 [1]: 1 to 1000 nM
- EC50 [2]: 1 to 1000 nM

Compound: CCc1ccc([C@@H]2CC(=O)NC[C@H]2NC(=O)Nc2ccc(Cl)cc2)cc1 (racemic) [Example 73, rac-trans-1-(4-chlorophenyl)-3-(4-(4-ethylphenyl)-6-oxopiperidin-3-yl)urea]
- EC50 [1]: 1 to 1000 nM
- EC50 [2]: 1 to 1000 nM

Compound: O=C1C[C@@H](c2ccc(OC(F)F)cc2)[C@H](NC(=O)Nc2ccc(Cl)cc2)CN1 (racemic) [Example 74, rac-trans-1-(4-chlorophenyl)-3-(4-(4-(difluoromethoxy)phenyl)-6-oxopiperidin-3-yl)urea]
- EC50 [1]: 1 to 1000 nM
- EC50 [2]: 1 to 1000 nM

Compound: CS(=O)(=O)c1ccc([C@@H]2CC(=O)NC[C@H]2NC(=O)Nc2ccc(Cl)cc2)cc1 (racemic) [Example 75, rac-trans-1-(4-chlorophenyl)-3-(4-(4-(methylsulfonyl)phenyl)-6-oxopiperidin-3-yl)urea]
- EC50 [1]: 1 to 1000 nM
- EC50 [2]: 1 to 1000 nM

Compound: COc1ccc(C2C(NC(=O)Nc3ccc(Cl)cc3)CCCN2C)cc1 (single isomer, unassigned; dia1) [Example 89, dia1-1-(4-chlorophenyl)-3-(2-(4-methoxyphenyl)-1-methylpiperidin-3-yl)urea]
- EC50 [1]: 1 to 1000 nM
- EC50 [2]: 1 to 1000 nM

Compound: COc1cc(F)c(C2C(NC(=O)Nc3ccc(Cl)cc3)CCCN2C)c(F)c1 (single isomer, unassigned; dia2) [Example 88, dia2-1-(4-chlorophenyl)-3-(2-(2,6-difluoro-4-methoxyphenyl)-1-methylpiperidin-3-yl)urea]
- EC50 [1]: 1 to 1000 nM
- EC50 [2]: 1 to 1000 nM

Compound: COc1ccc(C2C(NC(=O)Nc3ccc(Cl)cc3)CCCN2C)cc1 (single isomer, unassigned; dia2) [Example 90, dia2-1-(4-chlorophenyl)-3-(2-(4-methoxyphenyl)-1-methylpiperidin-3-yl)urea]
- EC50 [1]: 1 to 1000 nM
- EC50 [2]: 1 to 1000 nM
